Marks after values point to notes of the source that are not given here.
Experiments:
[1] = system: NMDA receptor; conditions: Grigoriev et al. Chim. Pharm. Journal, 1988; cited from earlier work
[2] = at the doses in which it produces its anti-NMDA effect; cited from earlier work
[3] = system: Male Wistar rats; test: Chronic anticonvulsant activity using the kainic acid seizure test in rat; type: in vivo; conditions: for Wet-shakes Presence: 120 min observation; for Wet-shakes Presence / Rearings Presence / Rearings with Forelimb Clonus Presence: out of 10 animals; for Forelimb Clonus No.: average number of all animals; for Rearings Latency / Rearings with Forelimb Clonus Latency / Wet-shakes Latency: average of all animals
From the text: Chronic Anticonvulsant Activity Using the Kainic Acid Seizure Test in Rat. Dimebolins, including the compounds described herein, are shown to be efficacious in the rat kainic acid anticonvulsant activity model. It is appreciated that this model, though general, may also most closely correspond to and/or be more predictive of temporal lobe epilepsy found in humans. However, it is to be understood that this model is a general surrogate for all types of epilepsy.
Male Wistar rats (such as Male Rj: Wistar (Han) rats, weighing 180-280 g at the day of testing, from Elevage Janvier, 53940 Le Genest-Saint-Isle, France) are placed in groups of 4-5 in macrolon cages (41×25×18 cm or 44×28×19 cm) on wood litter (Litalabo—SPPS, 95100 Argenteuil, France), with free access to food and water until tested, and maintained under artificial lighting (12 hours) between 7:00 and 19:00 in a controlled ambient temperature of about 21° C., and relative humidity between 30-80%. Animals are acclimatized to laboratory conditions for least 3 days. Animals surviving the experiments are sacrificed at the end of the experiments by exposure to a mixture of O2/CO2 (20%/80%) followed by CO2.
Dimebon, or an analog or derivative thereof, either alone or in combination with one or more other compounds as described herein, is evaluated at 3 doses (e.g. 1, 3, and 10 mg/kg), administered i.p. once daily for seven days, with a administration volume of 5 mL/kg. The last administration (7th) is injected 30 minutes prior to kainic acid administration, and compared with a vehicle control group. The test article (single compound or combination) is prepared in 0.2% HPMC in physiological saline as follows: The test article is tested for solubility by cold stirring of the highest intended dose for 10 minutes in physiological saline. If soluble, physiological saline serves as vehicle, and doses are prepared W/V (stock) and then V/V (serial dilutions). Preparations may be made freshly for each day of administration and precautions may be taken to preserve the homogeneity of suspensions (if applicable) during the period of administration.
Diazepam (4 mg/kg i.p.) is administered in 0.2% HPMC in physiological saline 30 minutes prior to KA, and is used as reference substance (positive control). Kainic acid (12 mg/kg i.p.) dissolved in physiological saline is administered 30 minutes following the 7th administration of test article, diazepam, or vehicle control. Additional details are described in Ben-Ari et al, Neuroscience, 6, 1361-1391, 1981 for detecting anticonvulsant activity related to a glutamatergic mechanism.
Animals are injected with kainic acid (12 mg/kg i.p.). The occurrences of the following symptoms are noted over a 120 minute period after kainic acid injection: wet-shakes, rearings, and rearings with forelimb clonus. […] In addition, the latencies to the first appearance of the symptoms are measured and the number of forelimb clonus are counted. The number of forelimb clonus episodes per time interval starting from the first occurrence of forelimb clonus will be considered regarding the severity scale. 10 animals are studied per group. The test is performed blind. Quantitative data is analyzed by comparing treated groups with vehicle control using unpaired Student's t tests. Quantal data is analyzed by comparing treated groups with vehicle control using Fisher's Exact Probability tests.

[4] = system: Male Wistar rats; test: Acute anticonvulsant activity using the kainic acid seizure test in rat; type: in vivo; conditions: single dose 100 mg/kg i.p. 60 minutes prior to kainic acid
Protocol: Male Wistar rats (such as Male Rj: […] Animals are acclimatized to laboratory conditions for least 3 days. […] Additional details are described in Ben-Ari et al, Neuroscience, 6, 1361-1391, 1981 for detecting anticonvulsant activity related to a glutamatergic mechanism. Animals are injected with kainic acid (12 mg/kg i.p.). The occurrences of the following symptoms are noted over a 120 minute period after kainic acid injection: wet-shakes, rearings, and rearings with forelimb clonus. […] In addition, the latencies to the first appearance of the symptoms are measured and the number of forelimb clonus are counted. The number of forelimb clonus episodes per time interval starting from the first occurrence of forelimb clonus will be considered regarding the severity scale. 10 animals are studied per group. The test is performed blind. Quantitative data is analyzed by comparing treated groups with vehicle control using unpaired Student's t tests. Quantal data is analyzed by comparing treated groups with vehicle control using Fisher's Exact Probability tests. Acute Anticonvulsant Activity Using the Kainic Acid Seizure Test in Rat. Dimebon, or an analog or derivative thereof, including the compounds described herein, is shown to be efficacious in the rat kainic acid anticonvulsant activity model. […] The 100 mg/kg formulation is prepared in 0.2% HPMC in physiological saline.

[5] = reference substance 4 mg/kg i.p. 30 minutes prior to kainic acid
[6] = reference substance 4 mg/kg i.p. 30 minutes prior to kainic acid 12 mg/kg i.p.
[7] = 1 mg/kg i.p. once daily 7 days, last 30 min before kainic acid
[8] = 1 mg/kg i.p. once daily 7 days, last 30 min before kainic acid 12 mg/kg i.p.
[9] = 3 mg/kg i.p. once daily 7 days, last 30 min before kainic acid
[10] = 3 mg/kg i.p. once daily 7 days, last 30 min before kainic acid 12 mg/kg i.p.
[11] = 10 mg/kg i.p. once daily 7 days, last 30 min before kainic acid
[12] = 10 mg/kg i.p. once daily 7 days, last 30 min before kainic acid 12 mg/kg i.p.

NC(CCCP(=O)(O)O)C(=O)O (stereo not drawn) [AP5, 2-amino-5-phosphonovaleric acid]
ED50 (anti-NMDA effect) [1]: 190 mg/kg | neurotoxic effects [2]: disturbance of coordination of movement and a sedative effect

CN1C(=O)CN=C(c2ccccc2)c2cc(Cl)ccc21 [Diazepam]
Forelimb Clonus No., % change from vehicle [3, 5]: −79% | Rearings Latency, % change from vehicle [3, 5]: +8% | Rearings Presence, % change from vehicle [3, 5]: 0% | Rearings with Forelimb Clonus Latency, % change from vehicle [3, 5]: +36% | Rearings with Forelimb Clonus Presence, % change from vehicle [3, 5]: −60% | Wet-shakes Latency, % change from vehicle [3, 5]: +53% | Wet-shakes Presence, % change from vehicle [3, 5]: −10% | Wet-shakes Presence [3, 6]: 9 ^NS | Forelimb Clonus No. [3, 6]: 0.6 ** | Rearings Latency [3, 6]: 4282 ^NS seconds | Rearings with Forelimb Clonus Latency [3, 6]: 6841 *** seconds | Wet-shakes Latency [3, 6]: 3753 * seconds | Rearings Presence [3, 6]: 9 ^NS | Rearings with Forelimb Clonus Presence [3, 6]: 4 *^

Cc1ccc2c(c1)c1c(n2CCc2ccc(C)nc2)CCN(C)C1 [Dimebon, 2,8-dimethyl-5-[2-(6-methyl-3-pyridyl)ethyl]-2,3,4,5-tetrahydro-1H-pyrido[4,3-b]indole]
Forelimb Clonus No., % change from vehicle [4]: −54% | Rearings Latency, % change from vehicle [4]: +57% | Rearings Presence, % change from vehicle [4]: −78% | Rearings with Forelimb Clonus Latency, % change from vehicle [4]: −10% | Rearings with Forelimb Clonus Presence, % change from vehicle [4]: −40% | Wet-shakes Latency, % change from vehicle [4]: +79%^(f) | Wet-shakes Presence, % change from vehicle [4]: −50%^(e) | Forelimb Clonus No. ([4]; average number of all animals): 1.3 ^NS | Rearings Latency ([4]; average of all animals): 6197 * seconds | Rearings with Forelimb Clonus Latency ([4]; average of all animals): 4546 ^NS seconds | Wet-shakes Latency ([4]; average of all animals): 4394 ^NS seconds | Rearings Presence ([4]; out of 10 animals): 2 * | Rearings with Forelimb Clonus Presence ([4]; out of 10 animals): 6 ^NS | Wet-shakes Presence ([4]; out of 10 animals): 5 ^NS | Forelimb Clonus No., % change from vehicle [3, 7]: −32% | Rearings Latency, % change from vehicle [3, 7]: +24% | Rearings Presence, % change from vehicle [3, 7]: −33% | Rearings with Forelimb Clonus Latency, % change from vehicle [3, 7]: +19% | Rearings with Forelimb Clonus Presence, % change from vehicle [3, 7]: −30% | Wet-shakes Latency, % change from vehicle [3, 7]: +47%^(h) | Wet-shakes Presence, % change from vehicle [3, 7]: −20%^(g) | Wet-shakes Presence [3, 8]: 8 ^NS | Forelimb Clonus No. [3, 8]: 1.9 ^NS | Rearings Latency [3, 8]: 4896 ^NS seconds | Rearings with Forelimb Clonus Latency [3, 8]: 6009 * seconds | Wet-shakes Latency [3, 8]: 3615 ^NS seconds | Rearings Presence [3, 8]: 6 ^NS | Rearings with Forelimb Clonus Presence [3, 8]: 7 ^NS | Forelimb Clonus No., % change from vehicle [3, 9]: −11% | Rearings Latency, % change from vehicle [3, 9]: +4% | Rearings Presence, % change from vehicle [3, 9]: 0% | Rearings with Forelimb Clonus Latency, % change from vehicle [3, 9]: +7% | Rearings with Forelimb Clonus Presence, % change from vehicle [3, 9]: −10% | Wet-shakes Latency, % change from vehicle [3, 9]: +9% | Wet-shakes Presence, % change from vehicle [3, 9]: 0% | Wet-shakes Presence [3, 10]: 10 ^NS | Forelimb Clonus No. [3, 10]: 2.5 ^NS | Rearings Latency [3, 10]: 4134 ^NS seconds | Rearings with Forelimb Clonus Latency [3, 10]: 5366 ^NS seconds | Wet-shakes Latency [3, 10]: 2666 ^NS seconds | Rearings Presence [3, 10]: 9 ^NS | Rearings with Forelimb Clonus Presence [3, 10]: 9 ^NS | Forelimb Clonus No., % change from vehicle [3, 11]: −18% | Rearings Latency, % change from vehicle [3, 11]: +14% | Rearings Presence, % change from vehicle [3, 11]: −11% | Rearings with Forelimb Clonus Latency, % change from vehicle [3, 11]: +7% | Rearings with Forelimb Clonus Presence, % change from vehicle [3, 11]: −10% | Wet-shakes Latency, % change from vehicle [3, 11]: +17% | Wet-shakes Presence, % change from vehicle [3, 11]: 0% | Wet-shakes Presence [3, 12]: 10 ^NS | Forelimb Clonus No. [3, 12]: 2.3 ^NS | Rearings Latency [3, 12]: 4526 ^NS seconds | Rearings with Forelimb Clonus Latency [3, 12]: 5410 ^NS seconds | Wet-shakes Latency [3, 12]: 2865 ^NS seconds | Rearings Presence [3, 12]: 8 ^NS | Rearings with Forelimb Clonus Presence [3, 12]: 9 ^NS

Source: US11389435B2, “Compositions and methods for treating epilepsy” (BIOVISTA, INC., priority 2008, dated 2022)
